Measurements from patent US5409692A, “Glucosyltransferase inhibitors, as well as dental caries prevention methods and anticarious foods using the same” (priority 1990, dated 1995).
In brackets after ≈: the same amount, converted by molar mass. Blank lines part the entries; values can stand above or below the molecule they belong to.

Assays:
[1] = Solubility in distilled water; format: physicochemical; details: for solubility: distilled water, water
From the text: Sugar: Refined sugar (prime grade)
Palatinose: Crystalline palatinose

[2] = test system: glucosyltransferase; experiment: Glucosyltransferase inhibition activity (insoluble glucan, absorbance at 550 nm); format: biochemical, S. mutans MT8148; details: 0.15 ml of 2,000 ppm sample solution in 3 ml total volume; pH 6.0, 37° C., 3 hours; control water
Protocol: As an enzyme solution, was used an extract which was obtained by culturing S. mutans MT8148 strain on Todd-Hewitt medium and then extracting hyphae with 8M urea in accordance with the method proposed by Hamada et al. [S. Hamada et al., J. Gen. Microbiol., 35, 335- 344 (1999 )].
A reaction system was prepared by adding 0.15 ml of an aqueous solution of a sample, said solution having been prepared to contain the sample at the concentration of 2,000 ppm, the enzyme solution prepared from the S. mutans strain and water to 0.6 ml of 500 mM sodium phosphate buffer which had pH 6.0 and contained 5% of sucrose, 0.5% of dextran T10 and 0.5% of sodium azide. The water was added in an amount to give a total volume of 3 ml. They were reacted in a glass test tube. In the above measurement, the amount of the enzyme was set such that the absorbance at 550 nm became about 1.0 when reacted at 37° C. for 3 hours.
Resultant insoluble glucan was subjected to ultrasonic disintegration and the; absorbance (A) at 550 nm was measured. Using as control (B) the absorbance obtained from the use of water in place of the sample solution, the inhibition rate (%) was determined in accordance with the following calculation formula: [formula] (Measurement results )
The glucosyltransferase inhibition activities of the extracts of the various fermented tea leaves, said extracts having been obtained in Examples 1, 2 and 3, and of caffeine and catechins, which are representative components of tea leaves, were measured using the above reaction system.

[3] = test system: S. mutans MT8148 strain; experiment: Anti-plaque test (in vitro plaque formation); format: cell-based; details: sample 5% in Dulbecco's modified Eagle's medium, 37° C., 1 day, anaerobic; Average ± S.D.; anticarious sugar of Example 10
Protocol: The test was carried out in the following manner. Culture media were prepared by adding the test samples at the concentration of 5% to Dulbecco's modified Eagle's medium, respectively. 6-ml Portions of the media were added to glass test tubes, respectively, to which S. mutans MT8148 strain was planted. After the cells were cultured at 37° C. for 1 day under anaerobic conditions, the amounts of plaque adhered on the walls of the respective test tubes were weighed.

[4] = test system: glucosyltransferase; experiment: Anti-glucan formation test; format: biochemical, S. mutans MT8148; details: 0.3 ml of 10% sample solution in 3 ml; pH 6.0, 37° C., 3 hours; relative to sugar
Protocol: To a mixture consisting of 0.3 ml of a 10% sample solution, 0.3 ml of 1M sodium phosphate buffer-which had pH 6.0 and contained 1.0% of dextran T10 and 1.0% of sodium azide--and a glucosyltransferase enzyme solution, water was added in an amount to give a total volume of 3 ml so that a reaction system was prepared. They were reacted in a glass test tube.
Insoluble glucan thus formed was subjected to ultrasonic disintegration, and the absorbance (A) at 550 nm was measured.
As the glucosyltransferase enzyme solution, was used an extract which was obtained by culturing S. mutans MT8148 strain on Todd-Hewitt medium and then extracting hyphae with 8M urea in accordance with the method proposed by Hamada et al. [S. Hamada et al., J. Gen. Microbiol., 135, 335-344 (1989)].

- solubility ([1]; 10° C.): 630 mg/mL (≈ 1840 mM)
- solubility ([1]; 30° C.): 680 mg/mL (≈ 1990 mM)
- solubility ([1]; 50° C.): 720 mg/mL (≈ 2100 mM)
- solubility ([1]; 70° C.): 740 mg/mL (≈ 2160 mM)
SMILES: OC[C@H]1O[C@@](CO)(O[C@H]2O[C@H](CO)[C@@H](O)[C@H](O)[C@H]2O)[C@@H](O)[C@@H]1O [Sugar]

SMILES: Oc1cc(O)c2c(c1)O[C@H](c1ccc(O)c(O)c1)[C@H](O)C2 [Epicatechin]
- Inhibition rate, % [2]: 14%

SMILES: Oc1cc(O)c2c(c1)OC(c1ccc(O)c(O)c1)C(O)C2 (stereo not shown) [Catechin]
- Inhibition rate, % [2]: 13%

SMILES: Oc1cc(O)c2c(c1)O[C@H](c1cc(O)c(O)c(O)c1)[C@@H](O)C2 [Gallocatechin]
- Inhibition rate, % [2]: 15%

SMILES: OC[C@H]1O[C@H](OC[C@H]2OC(O)(CO)[C@@H](O)[C@@H]2O)[C@H](O)[C@@H](O)[C@@H]1O (stereo partly shown) [Palatinose, palatinose]
- Amount of plaque formed [3]: 2.01 ± 0.22 mg
- Relative amount of formed glucan, % [4]: 2%
- Solubility (in words) [1]: low solubility especially at low temperatures
- solubility ([1]; 10° C.): 210 mg/mL (≈ 614 mM)
- solubility ([1]; 30° C.): 320 mg/mL (≈ 935 mM)
- solubility ([1]; 50° C.): 440 mg/mL (≈ 1290 mM)
- solubility ([1]; 70° C.): 580 mg/mL (≈ 1690 mM)

SMILES: O=C(O[C@@H]1Cc2c(O)cc(O)cc2O[C@@H]1c1ccc(O)c(O)c1)c1cc(O)c(O)c(O)c1 [Epicatechin gallate]
- Inhibition rate, % [2]: 19%

SMILES: Oc1cc(O)c2c(c1)O[C@H](c1cc(O)c(O)c(O)c1)[C@H](O)C2 [Epigallocatechin]
- Inhibition rate, % [2]: 11%
